Source: patent publication US10660898B2, “Benzimidazole derivatives as PI3 kinase inhibitors” (GLAXOSMITHKLINE LLC, priority 2010, dated 2020)

How the values were obtained:
[1] = tested on: UACC-62; test: Anchorage independent soft agar tumor growth assay; type: cell-based; details: UACC-62 skin melanoma, PTEN p.P248fs*5, No protein
Procedure: (§1) Cellular Assays—Cell Growth Inhibition Assay in PTEN Wild-Type or PTEN Deficient Tumor Cell Lines Twenty-two Phosphatase and Tensin Homolog (PTEN) wild-type or PTEN deficient tumor cell lines were cultured generally according to instructions supplied by cell culture supplier American Type Culture Collection, Manassas, Va., with 10% fetal bovine serum at 5% CO2 and 37° C. Cells were seeded into either a T-75 or a T-175 flask 3-4 days prior to 96-well assay plating such that the flasks were approximately 70-80% confluent of the time of harvest. Cells were harvested using 0.25% trypsin-EDTA (Invitrogen #25200056). Trypan Blue exclusion staining was used to determine cell number. Viable cells were plated in clear, flat bottom 96-well plates (BD #353075) under anchorage independent conditions at 2,000-10,000 cells per well depending on the cell line. To generate anchorage independent growth conditions, a 5% agar stock solution in water was made and autoclaved to melt and sterilize. From the 5% agar solution, a 0.6% agar/media+10% fetal bovine serum (FBS) solution was made to generate a bottom agar layer in the plates to prevent cell attachment. Seventy five microliters per well of the 0.6% agar-media solution was added to the plates. After solidification, a cell solution of 266,870 to 1, 334,022 cells (depending on the cell line) in 10 ml of 0.3% agar/media+10% FBS was made and 75 μl of the cell/media/agar suspension was added to the plates. After the cell layer solidified, 50 μl of media+10% FBS was added to the top of the cells. A 0.3% Brij 35 (Sigma B4184) solution in media+10% FBS was added to column 12 as a background subtraction control. The cells were incubated overnight at 5% CO2 and 37° C. The next day one plate of cells was processed at the time of compound addition to quantify the starting number of cells (T=0 or T0). […] Three hundred microliters of media was added to the compound dilutions. Ten microliters per well of the serial dilutions was added to the cells and the plates incubated for 6 days at 5% CO2 and 37° C. […] Following the 6-day incubation, 20 μl of Alamar Blue (Invitrogen # DAL1100) was added to the cells, incubated at 5% CO2 and 37° C. for 6 hours and the plates read on a Spectramax (Gemini EM) at 530 nm (excitation) and 590 nm (emission) with the auto cut-off disabled. For analysis of cell growth inhibition dose response curves, the data was plotted as the percent of the DMSO-treated control samples (DMSO samples set to 100%). […] Values from wells containing 0.3% Brij 35 (under anchorage independent conditions) were subtracted from all samples for background correction.

[2] = tested on: HCC1395; test: Anchorage independent soft agar tumor growth assay; type: cell-based; details: HCC1395 breast carcinoma, PTEN p.N212fs*3, No protein
Procedure: as §1

[3] = tested on: H4; test: Anchorage independent soft agar tumor growth assay; type: cell-based; details: H4 CNS glioblastoma, PTEN Loss, No protein
Procedure: as §1

[4] = tested on: HCC1954; test: Anchorage independent soft agar tumor growth assay; type: cell-based; details: HCC1954 breast carcinoma, PTEN Wild-type, Protein
Procedure: as §1

[5] = tested on: SW1088; test: Anchorage independent soft agar tumor growth assay; type: cell-based; details: SW1088 CNS glioblastoma, PTEN Loss, No protein
Procedure: as §1

[6] = tested on: PC-3; test: Anchorage independent soft agar tumor growth assay; type: cell-based, human; details: PC-3 prostate carcinoma, PTEN Loss, No protein
Procedure: Cellular Assays—Cell Growth Inhibition Assay in PTEN Wild-Type or PTEN Deficient Tumor Cell Lines Twenty-two Phosphatase and Tensin Homolog (PTEN) wild-type or PTEN deficient tumor cell lines were cultured generally according to instructions supplied by cell culture supplier American Type Culture Collection, Manassas, Va., with 10% fetal bovine serum at 5% CO2 and 37° C. Cells were seeded into either a T-75 or a T-175 flask 3-4 days prior to 96-well assay plating such that the flasks were approximately 70-80% confluent of the time of harvest. Cells were harvested using 0.25% trypsin-EDTA (Invitrogen #25200056). Trypan Blue exclusion staining was used to determine cell number. Viable cells were plated in clear, flat bottom 96-well plates (BD #353075) under anchorage independent conditions at 2,000-10,000 cells per well depending on the cell line. To generate anchorage independent growth conditions, a 5% agar stock solution in water was made and autoclaved to melt and sterilize. […] The next day one plate of cells was processed at the time of compound addition to quantify the starting number of cells (T=0 or T0). […] Following the 6-day incubation, 20 μl of Alamar Blue (Invitrogen # DAL1100) was added to the cells, incubated at 5% CO2 and 37° C. for 6 hours and the plates read on a Spectramax (Gemini EM) at 530 nm (excitation) and 590 nm (emission) with the auto cut-off disabled. […]

[7] = tested on: BT549; test: Anchorage independent soft agar tumor growth assay; type: cell-based; details: BT549 breast carcinoma; PTEN p.V275fs*1, No protein; percent of DMSO-treated control
[8] = tested on: pAKT (pAKT/tAKT); test: Pharmacodynamic effects in PC-3 xenograft tumors (MSD phospho/total AKT); type: in vivo, mouse; details: 3 mg/kg or 10 mg/kg, 1, 2, 4, 6, 8, 10, and 24 hours
Procedure: Female nude mice (Charles River Laboratories, Wilmington, Del.; strain CD-1-Foxn1, 6 weeks of age) were injected subcutaneously with 2 million PC-3 (human prostate carcinoma) cells mixed 1:1 with Matrigel in the flank. Tumors were allowed to grow for approximately 5 weeks. […] The tumor was excised. Half of each tumor was immediately processed by Medicon (BD Catalog #340592) in 1 mL Meso-Scale Discovery (MSD) lysis buffer with protease inhibitors (Roche complete protease cocktail, cat #04 693 116 001) and phosphatase inhibitors (Sigma, cat # P2850 and P-5726) for 30-60 seconds and transferred to 1.5 mL Eppendorf tubes. Tubes remained on wet ice until they were centrifuged for 10 minutes at 4° C. at maximum speed in a tabletop refrigerated centrifuge. Tumor lysates were serially diluted in 96-well polypropylene plates on wet ice. Lysates (150 μL) were loaded in row 1; rows 2-12 were loaded with 75 μL of complete Meso Scale Discovery (MSD) lysis buffer (supplied in MSD kit; # […]-3). […] Plates were washed as described above, before the addition of 150 µL of MSD read buffer and read immediately on a 6000 MSD plate reader. […] P/T AKT was calculated as shown: (phospho AKT(Ser473) signal)/[(phospho AKT(Ser473) signal)+(total AKT signal)]. […] Percent inhibition was calculated for each group as follows: 100-[(sample P/T AKT value)/(vehicle P/T AKT value)]*100.

[9] = Homo sapiens, 144 h, 6-day incubation, Alamar Blue, read-out: Compound EC50 (nM) ± StDev
[10] = percent of DMSO-treated control

- EC50 [1, 9]: 23 ± 27 nM
- EC50 [2, 9]: 114 ± 53 nM
- EC50 ([3]; 144 h, 6-day incubation, Alamar Blue, read-out: Compound EC50 (nM) ± StDev): 12 ± 8 nM
- EC50 [4, 9]: > 30700 nM
- EC50 [5, 9]: 12 ± 6 nM
- EC50 [6, 9]: 27 ± 12 nM
SMILES: Cc1c(Cn2c(C)nc3c(C(=O)O)cc(N4CCOCC4)cc32)cccc1C(F)(F)F [Example 31, 2-methyl-1-{[2-methyl-3-(trifluoromethyl)phenol]methyl}-6-(4-morpholinyl)-1H-benzimidazole-4-carboxylic acid]
- Compound Ymin ± StDev [1, 10]: 76 ± 18
- Compound Ymin ± StDev [2, 10]: 26 ± 9
- Compound Ymin ± StDev [3, 10]: 55 ± 18
- Compound Ymin ± StDev [4, 10]: >80
- Compound Ymin ± StDev [5, 10]: 36 ± 8
- Compound Ymin ± StDev [6, 10]: 82 ± 13
- Compound Ymin ± StDev [7]: 52 ± 7
- Inhibition of the pharmacodynamic marker pAKT (pAKT/tAKT) [8]: dose dependent inhibition
